# From US20220206003A1, “BIOMARKERS FOR PREDICTING RESISTANCE TO CANCER DRUGS” (INSTITUT CURIE, priority 2019, published 2022)
# Where two headings read alike, the source gives them in different places.
# Columns and labels:
# [1] = test system: HBCx-95 xenografts (triple negative breast cancer PDX); assay: Capecitabine treatment of HBCx-95 patient-derived xenografts (relative tumor volume, response); format: in vivo, Swiss nude mice; details: HBCx-95 xenograft, mouse #40, oral 540 mg/kg/day, second round after recurrence
# From the text: Female Swiss nude mice were purchased from Charles River Laboratories and maintained under specific pathogen-free conditions. Their care and housing were in accordance with institutional guidelines and the rules of the French Ethics Committee (project authorization no. 02163.02). A PDX model of luminal breast cancer (HBCx-22) was previously established at Institut Curie from untreated early-stage luminal breast cancer with informed consent from the patient. Acquisition of a resistant phenotype for a derivative of HBCx-22, HBCx-22-TamR, was previously established and maintained. A PDX from a residual triple negative breast cancer post neo-adjuvant chemotherapy (HBCx-95) was previously established at Institut Curie with informed consent from the patient. HBCx-95 xenografts (n=6) were treated with Capecitabine (Xeloda, Roche Laboratories) orally at a dose of 540 mg/kg/day, 5 days a week for 6 weeks. Relative tumor volumes (RTV, mm3) were calculated. Mice with recurrent tumors were treated for a second round of Capecitabine when PDX reached a volume of over 200 mm^3 (mice #35, #40 & #33).
# [2] = test system: HBCx-22 / HBCx-22-TamR luminal ER+ breast PDX; details: cited from earlier work
SMILES,response of recurrent PDX tumor to a second round of Capecitabine [1],"response of PDX to Tamoxifen ([2]; HBCx-22-TamR tumor derivative, previously characterized)",response of PDX to Tamoxifen ([2]; HBCx-22 luminal ER+ breast PDX)
CCCCCOC(=O)Nc1nc(=O)n([C@@H]2O[C@H](C)[C@@H](O)[C@H]2O)cc1F [Capecitabine],did not respond,,
CC/C(=C(\c1ccccc1)c1ccc(OCCN(C)C)cc1)c1ccccc1 [Tamoxifen],,acquired resistance,responsive
